According to article PMC7278695, “Dual SMO/BRAF Inhibition by Flavonolignans from Silybum marianum” (Antioxidants, 2020):

Assays:
[1] = biological target: T1, Human Myc-DDK-tagged SMO in HEK293T cells (Homo sapiens, UniProt Q99835); test: BODIPY-Cyclopamine binding (displacement) assay; settings: BC 5 nM, 2 h at 37 °C
T1 construct: Myc; DDK (FLAG); expressed in transfected cells; host or cells: HEK293T
Experimental: Human Myc-DDK-tagged SMO or empty vector was transfected in HEK293T cells. Cells were washed in phosphate-buffered saline (PBS) supplemented with 0.5% fetal bovine serum, fixed in 4% paraformaldehyde in PBS for 10 min, and incubated for 2 h at 37 °C, both in the same medium supplemented with BODIPY-Cyclopamine (BioVision Inc., San Francisco, CA, USA) (BC, 5 nM) and the studied compounds. The cells were permeabilized with Triton X100 (Sigma-Aldrich, St. Louis, MO, USA) 0.2%, and Hoechst reagent was used for cell nuclei staining. Data were expressed as a percentage of BC incorporation observed with BC alone.
To further investigate the binding properties of the selected compounds to the SMO receptor, we performed a displacement assay based on the use of BODIPY-Cyclopamine, which is known to interact with the binding site of SMO antagonists located within the heptahelical bundle of the receptor. To this aim, HEK293T cells were transiently transfected for expression of SMO and then incubated with BC in the presence or absence of increased amounts of DHSilA or DHSilAB.

[2] = system: A-375 skin melanoma malignant cells with BRAF V600E mutation; test: MTT cytotoxicity assay, A-375; type: cell-based; settings: Homo sapiens, 72 h, read-out: IC50 (95% Confidence Interval), A-375
Experimental: (§1) The cytotoxic activity of the tested compounds was evaluated on non-tumorigenic human keratinocytes (HaCaT, #300493), skin melanoma malignant cells with BRAF V600E mutation (A-375, #300110), and skin epidermoid carcinoma cells (A-431, #300112), all purchased from CLS Cell Lines Service (Eppelheim, Germany). The cell lines were maintained in DMEM (#DMEM-HPA, Capricorn®, Ebsdorfergrund, Germany) supplemented with 10% fetal bovine serum (#FBS-HI-12A, Capricorn®, Ebsdorfergrund, Germany) and 4 mM L-glutamine (#G7513, Merck (Sigma-Aldrich), Germany) and incubated under standard conditions (5% CO2, 37 °C, 90%-95% humidity). The experiments were performed between passages 4 and 15 whereby the cells were sub-cultured every 4th day by splitting 1:8, according to the protocol of the biobank. Briefly, the cell cultures were rinsed with PBS without calcium and magnesium (PBS, #D8537, Merck (Sigma-Aldrich), Germany) and incubated for 8-10 min with accutase (#ACC-1B, Capricorn®, Ebsdorfergrund, Germany) as a detachment agent. After centrifugation, the cells were counted with trypan blue (0.4% solution, #T8154, Merck (Sigma-Aldrich), Germany). The antiproliferative effects of SilA, SilB, […], and DHSilB were tested using the MTT-dye (3-(4,5-dimethylthiazol-2-yl)-2,5-diphenyltetrazolium bromide) assay according to ISO 10993-5-2009, Annex C [26]. Briefly, the cells were seeded in 96-well plates at a density of 0.1 × 10^6/mL, incubated for 24 h at 37 °C (5% CO2), and treated with ten concentrations of the compounds ranging from 3.9 to 1000 μM in twofold serial dilutions. After 72 h, the MTT-dye (#M5655-1G, Merck (Sigma-Aldrich), Germany) was added to each sample at a final concentration of 0.05 mg/mL and the plates were incubated for 2 h at 37 °C (5% CO2). The supernatant was aspirated, and the formazan crystals formed as a product of the enzymatic MTT reduction were dissolved in 2-propranol (#33539, Merck (Sigma-Aldrich), Germany) supplemented with 5% formic acid (#300415, […]/Neuber, Sofia, Bulgaria). The absorbance of the product was measured at 550 nm (reference filter 690 nm) on an ELISA Reader BioTek ELx800 (BioTek). The experiments for evaluation of the BRAF inhibition and cytotoxicity were performed in triplicate. The IC50 values were calculated by the BfROpenLab's non-linear regression nodes in the KNIME analytics platform with the constant slope model.

[3] = system: HaCaT non-tumorigenic human keratinocytes; test: MTT cytotoxicity assay, HaCaT; type: cell-based; settings: 72 h, read-out: IC50 (95% Confidence Interval), HaCaT
Experimental: as §1

[4] = system: Hedgehog signaling pathway in NIH3T3 Shh-Light II cells; test: HH-dependent (Gli-responsive) luciferase reporter assay; type: cell-based; settings: SAG 200 nM, 48 h; for HH inhibitory activity (in words): maximum concentration of 30 μM
Experimental: The luciferase assay was carried out in NIH3T3 Shh-Light II cells, stably incorporating a Gli-responsive luciferase reporter and the pRL-TK Renilla, treated with SAG (SMO Agonist, 200 nM, Alexis Biochemicals Farmingdale, NY, USA) and the selected compounds for 48 h. Luciferases activities from P. pyralisand and R. reniformis were assayed with a dual-luciferase assay system, according to the manufacturer’s instructions (Biotium Inc., Hayward, CA, USA). The results were expressed as a P. pyralisand/R. reniformis luciferase ratio and represent the mean ± S.D. of three experiments, each performed in triplicate.
With respect to the SMO receptor, the HH inhibitory activity of the compounds, alone and in a racemate, was investigated in a luciferase reporter assay, which is widely used for characterizing HH inhibitors. The HH inhibitory activity of synthesized molecules was evaluated in NIH3T3 Shh Light II cells, stably incorporating a Gli-responsive firefly luciferase treated with the synthetic SMO agonist SAG [32], alone and in combination with the tested compounds.

BRAF V600E kinase = biological target: T2, BRAF V600E kinase (Homo sapiens, UniProt P15056, V600E); test: BRAF (V600E) Kinase Assay Kit, Kinase-Glo luminescence; type: biochemical; settings: 45 min at 30 °C
T2 construct: purchased BPS Bioscience #48688
Experimental: The activities of silybins and dehydrosilybins were tested using a commercial BRAF (V600E) (serine/threonine-protein kinase B-raf, V600E mutant) Kinase Assay Kit (#48688, BPS Bioscience, San Diego, CA, USA). Briefly, the BRAF (V600E) enzyme was incubated for 45 min at 30 °C with five different concentrations of each tested compound in logarithmic dilutions (1000, 100, 10, 1, and 0.1 µM). The reaction mixture was prepared following the instructions of the producer. The luminescence of the product of the enzyme activity was measured with the Kinase-Glo MAX Kit (#V6071, Promega, Madison, WI, USA) at a microplate luminometer (Synergy Multi-Mode Reader, BioTek, Winooski, VT, USA). Higher luminescent signal corresponded to […] enzyme activity. […] The reaction mixture without the test inhibitor represented the positive control, whereas the mixture without the test inhibitor and without the enzyme was used as blank.
The experiments for evaluation of the BRAF inhibition and cytotoxicity were performed in triplicate. The IC50 values were calculated by the BfROpenLab’s non-linear regression nodes in the KNIME analytics platform with the constant slope model.

[5] = system: A-431 skin epidermoid carcinoma cells; test: MTT cytotoxicity assay, A-431; type: cell-based; settings: Homo sapiens, 72 h, read-out: IC50 (95% Confidence Interval), A-431
Experimental: as §1

T2 sequence (P15056 whole entry V600E): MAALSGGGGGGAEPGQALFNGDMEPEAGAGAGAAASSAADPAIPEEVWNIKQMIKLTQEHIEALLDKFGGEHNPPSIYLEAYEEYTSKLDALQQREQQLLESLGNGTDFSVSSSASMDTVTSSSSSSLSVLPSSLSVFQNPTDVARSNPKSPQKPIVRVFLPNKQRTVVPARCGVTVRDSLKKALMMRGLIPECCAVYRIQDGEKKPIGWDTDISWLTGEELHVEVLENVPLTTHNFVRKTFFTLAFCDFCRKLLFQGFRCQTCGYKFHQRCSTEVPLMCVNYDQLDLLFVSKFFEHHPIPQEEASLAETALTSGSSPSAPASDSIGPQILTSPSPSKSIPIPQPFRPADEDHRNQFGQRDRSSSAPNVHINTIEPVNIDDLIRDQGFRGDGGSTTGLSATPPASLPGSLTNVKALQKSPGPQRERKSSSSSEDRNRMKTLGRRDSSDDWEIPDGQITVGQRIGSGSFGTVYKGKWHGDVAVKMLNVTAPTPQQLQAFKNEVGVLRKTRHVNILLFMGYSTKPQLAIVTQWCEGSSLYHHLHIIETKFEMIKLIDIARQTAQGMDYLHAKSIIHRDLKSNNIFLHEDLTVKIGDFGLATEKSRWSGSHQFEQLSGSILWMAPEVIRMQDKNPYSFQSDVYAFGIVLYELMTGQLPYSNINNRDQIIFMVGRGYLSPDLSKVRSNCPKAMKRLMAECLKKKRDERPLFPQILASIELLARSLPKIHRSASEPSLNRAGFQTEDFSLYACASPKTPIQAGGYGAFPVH
T1 sequence (Q99835 28-787): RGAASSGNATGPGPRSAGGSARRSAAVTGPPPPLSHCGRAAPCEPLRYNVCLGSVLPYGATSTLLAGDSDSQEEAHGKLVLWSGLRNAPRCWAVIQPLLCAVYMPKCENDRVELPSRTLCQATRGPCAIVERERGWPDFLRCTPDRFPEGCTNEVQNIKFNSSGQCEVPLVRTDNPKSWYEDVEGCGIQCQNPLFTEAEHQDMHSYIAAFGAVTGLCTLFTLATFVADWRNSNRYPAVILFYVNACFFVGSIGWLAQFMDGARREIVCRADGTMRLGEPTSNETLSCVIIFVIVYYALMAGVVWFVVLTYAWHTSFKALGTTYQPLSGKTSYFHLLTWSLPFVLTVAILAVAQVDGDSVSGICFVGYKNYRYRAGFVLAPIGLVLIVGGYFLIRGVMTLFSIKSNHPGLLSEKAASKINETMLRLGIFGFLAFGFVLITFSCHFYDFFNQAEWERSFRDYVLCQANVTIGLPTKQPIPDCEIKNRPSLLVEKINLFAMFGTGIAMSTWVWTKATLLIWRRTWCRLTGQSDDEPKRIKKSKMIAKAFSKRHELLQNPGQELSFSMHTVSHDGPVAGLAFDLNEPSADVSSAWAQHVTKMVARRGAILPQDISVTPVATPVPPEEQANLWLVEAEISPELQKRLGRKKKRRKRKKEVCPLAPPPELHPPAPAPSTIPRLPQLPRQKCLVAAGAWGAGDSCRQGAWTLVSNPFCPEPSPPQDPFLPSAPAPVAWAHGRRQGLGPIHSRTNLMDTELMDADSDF

IC50 (BRAF V600E kinase) [µM] | SMILES | Inhibition of BODIPY-Cyclopamine (BC) binding to cells expressing SMO [1] | IC50 [2] [µM] | IC50 [3] [µM] | HH inhibitory activity (in words) [4] | IC50 ([4]; read-out: IC50, HH inhibitory activity) [µM] | IC50 [5] [µM]
70.6 | COc1cc([C@H]2Oc3cc(-c4oc5cc(O)cc(O)c5c(=O)c4O)ccc3O[C@@H]2CO)ccc1O [DHSilA, 2,3-dehydrosilybin A] | inhibited BC binding to cells expressing SMO in a dose-dependent manner | 83 | 231 | high activity | 5 to 10 | 97
24.9 | COc1cc([C@@H]2Oc3cc(-c4oc5cc(O)cc(O)c5c(=O)c4O)ccc3O[C@H]2CO)ccc1O [DHSilB, 2,3-dehydrosilybin B] |  | 86 | 164 | inactive |  | 130
104 | COc1cc([C@H]2Oc3cc([C@H]4Oc5cc(O)cc(O)c5C(=O)[C@@H]4O)ccc3O[C@@H]2CO)ccc1O [SilA, silybin A] |  | 97 | 120 | mild activity |  | 126
73.9 | COc1cc([C@@H]2Oc3cc([C@H]4Oc5cc(O)cc(O)c5C(=O)[C@@H]4O)ccc3O[C@H]2CO)ccc1O [SilB, silybin B] |  | 120 | 150 | mild activity |  | 166
